Results on five cell lines are retold here after the supplement of paper PMC10307832.

Common to all, as to experiment: relative viability (nuclei count vs DMSO), 5 days (fraction); higher = more cells survive
Compound in the experiment “Vorinostat + Palbociclib”: O=C(CCCCCCC(=O)Nc1ccccc1)NO [Vorinostat] + CC(=O)c1c(C)c2cnc(Nc3ccc(N4CCNCC4)cn3)nc2n(C2CCCC2)c1=O [Palbociclib] (partner 0.5 µM)
In a few lines:
(§1)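 A single step with final 0.05% Triton X-100, 1% formaldehyde and 1 ug/ml Hoechst fixed the cells and stained nuclei 5 days after treatment. Lung cancer cell lines in 1536-well plates had been treated by pin tool the day after seeding with one drug alone or a fixed anchor-drug dose plus five library-drug doses (not always all listed) in √10 steps, and nuclei were counted on 4× images. Relative viability is the ratio of nuclei in treated wells to nuclei in vehicle wells, taken as the median of duplicate plates.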

Compound in the experiment “Vorinostat + Bortezomib”: O=C(CCCCCCC(=O)Nc1ccccc1)NO [Vorinostat] + CC(C)C[C@H](NC(=O)[C@H](Cc1ccccc1)NC(=O)c1cnccn1)B(O)O [Bortezomib] (partner 0.002 µM)
In a few lines:
as §1

Compound in the experiment “Vorinostat + Foretinib”: O=C(CCCCCCC(=O)Nc1ccccc1)NO [Vorinostat] + COc1cc2c(Oc3ccc(NC(=O)C4(C(=O)Nc5ccc(F)cc5)CC4)cc3F)ccnc2cc1OCCCN1CCOCC1 [Foretinib] (partner 0.25 µM)
A digest of the protocol: as §1

Compound in the experiment “Vorinostat + Pictilisib”: O=C(CCCCCCC(=O)Nc1ccccc1)NO [Vorinostat] + CS(=O)(=O)N1CCN(Cc2cc3nc(-c4cccc5[nH]ncc45)nc(N4CCOCC4)c3s2)CC1 [Pictilisib] (partner 1 µM)
A digest of the protocol:
as §1

Compound in the experiment “Vorinostat + Crizotinib”: O=C(CCCCCCC(=O)Nc1ccccc1)NO [Vorinostat] + C[C@@H](Oc1cc(-c2cnn(C3CCNCC3)c2)cnc1N)c1c(Cl)ccc(F)c1Cl [Crizotinib] (partner 1 µM)
A digest of the protocol: as §1

In the case of NCI-H2126, the relative viability with Vorinostat + Palbociclib (first compound 0.253 µM) was found to be 0.396; in the experiment with Vorinostat + Palbociclib (first compound 0.8 µM) it was 0.367; with Vorinostat + Palbociclib (first compound 2.53 µM), 0.314; with Vorinostat + Palbociclib (first compound 8 µM) it was 0.194; with Vorinostat + Bortezomib (first compound 0.253 µM), 1.13; with Vorinostat + Bortezomib (first compound 0.8 µM) it was 1.13. The relative viability stood at 0.943 with Vorinostat + Bortezomib (first compound 2.53 µM); 0.371 in the experiment with Vorinostat + Bortezomib (first compound 8 µM); 1.14 in the experiment with Vorinostat + Foretinib (first compound 0.253 µM); 0.968 with Vorinostat + Foretinib (first compound 0.8 µM); 0.365 with Vorinostat + Foretinib (first compound 2.53 µM); 0.235 with Vorinostat + Foretinib (first compound 8 µM). Further, the relative viability was found to be 0.495 with Vorinostat + Pictilisib (first compound 0.253 µM); 0.42 with Vorinostat + Pictilisib (first compound 0.8 µM); 0.334 with Vorinostat + Pictilisib (first compound 2.53 µM); 0.221 in the experiment with Vorinostat + Pictilisib (first compound 8 µM); 0.961 in the experiment with Vorinostat + Crizotinib (first compound 0.253 µM); 1.01 in the experiment with Vorinostat + Crizotinib (first compound 0.8 µM). Moreover, the relative viability with Vorinostat + Crizotinib (first compound 2.53 µM) was found to be 0.538; with Vorinostat + Crizotinib (first compound 8 µM), 0.203.
Regarding NCI-H2228, the relative viability with Vorinostat + Palbociclib (first compound 0.253 µM) is 0.713; in the experiment with Vorinostat + Palbociclib (first compound 0.8 µM), 0.431; with Vorinostat + Palbociclib (first compound 2.53 µM) it was 0.22; in the experiment with Vorinostat + Palbociclib (first compound 8 µM) it was 0.0631; with Vorinostat + Bortezomib (first compound 0.253 µM), 0.979; with Vorinostat + Bortezomib (first compound 0.8 µM), 0.389. In addition, the relative viability in the experiment with Vorinostat + Bortezomib (first compound 2.53 µM) was found to be 0.188; in the experiment with Vorinostat + Bortezomib (first compound 8 µM) it was 0.097; with Vorinostat + Foretinib (first compound 0.253 µM), 0.917; with Vorinostat + Foretinib (first compound 0.8 µM), 0.537; in the experiment with Vorinostat + Foretinib (first compound 2.53 µM), 0.311; with Vorinostat + Foretinib (first compound 8 µM), 0.0906. Further, the relative viability came out at 0.649 with Vorinostat + Pictilisib (first compound 0.253 µM); 0.223 with Vorinostat + Pictilisib (first compound 0.8 µM); 0.142 with Vorinostat + Pictilisib (first compound 2.53 µM); 0.138 with Vorinostat + Pictilisib (first compound 8 µM); 0.593 with Vorinostat + Crizotinib (first compound 0.253 µM); 0.502 with Vorinostat + Crizotinib (first compound 0.8 µM). For the same cell line, the relative viability with Vorinostat + Crizotinib (first compound 2.53 µM) came out at 0.246; in the experiment with Vorinostat + Crizotinib (first compound 8 µM), 0.168.
As to NCI-H2347, the relative viability came to 0.405 in the experiment with Vorinostat + Palbociclib (first compound 0.253 µM); 0.371 with Vorinostat + Palbociclib (first compound 0.8 µM); 0.362 with Vorinostat + Palbociclib (first compound 2.53 µM); 0.242 with Vorinostat + Palbociclib (first compound 8 µM); 0.971 with Vorinostat + Bortezomib (first compound 0.253 µM); 0.843 in the experiment with Vorinostat + Bortezomib (first compound 0.8 µM). For the same cell line, the relative viability with Vorinostat + Bortezomib (first compound 2.53 µM) was determined as 0.561; in the experiment with Vorinostat + Bortezomib (first compound 8 µM) it was 0.199; in the experiment with Vorinostat + Foretinib (first compound 0.253 µM), 1.02; in the experiment with Vorinostat + Foretinib (first compound 0.8 µM), 0.84; in the experiment with Vorinostat + Foretinib (first compound 2.53 µM), 0.587; with Vorinostat + Foretinib (first compound 8 µM), 0.198. Moreover, the relative viability with Vorinostat + Pictilisib (first compound 0.253 µM) came out at 0.696; with Vorinostat + Pictilisib (first compound 0.8 µM), 0.377; in the experiment with Vorinostat + Pictilisib (first compound 2.53 µM) it was 0.199; with Vorinostat + Pictilisib (first compound 8 µM), 0.211; with Vorinostat + Crizotinib (first compound 0.253 µM), 0.793; in the experiment with Vorinostat + Crizotinib (first compound 0.8 µM), 0.715. Also, the relative viability was found to be 0.379 in the experiment with Vorinostat + Crizotinib (first compound 2.53 µM) and 0.283 in the experiment with Vorinostat + Crizotinib (first compound 8 µM).
Take NCI-H2405: the relative viability was determined as 0.604 with Vorinostat + Palbociclib (first compound 0.253 µM); 0.627 with Vorinostat + Palbociclib (first compound 0.8 µM); 0.286 in the experiment with Vorinostat + Palbociclib (first compound 2.53 µM); 0.13 with Vorinostat + Palbociclib (first compound 8 µM); 1.06 with Vorinostat + Bortezomib (first compound 0.253 µM); 1.01 with Vorinostat + Bortezomib (first compound 0.8 µM). In addition, the relative viability stood at 0.952 in the experiment with Vorinostat + Bortezomib (first compound 2.53 µM); 0.206 with Vorinostat + Bortezomib (first compound 8 µM); 1.16 with Vorinostat + Foretinib (first compound 0.253 µM); 1.15 with Vorinostat + Foretinib (first compound 0.8 µM); 0.505 with Vorinostat + Foretinib (first compound 2.53 µM); 0.108 in the experiment with Vorinostat + Foretinib (first compound 8 µM). The relative viability came to 0.478 with Vorinostat + Pictilisib (first compound 0.253 µM); 0.542 in the experiment with Vorinostat + Pictilisib (first compound 0.8 µM); 0.153 with Vorinostat + Pictilisib (first compound 2.53 µM); 0.0468 with Vorinostat + Pictilisib (first compound 8 µM); 0.917 in the experiment with Vorinostat + Crizotinib (first compound 0.253 µM); 0.88 with Vorinostat + Crizotinib (first compound 0.8 µM). Moreover, the relative viability with Vorinostat + Crizotinib (first compound 2.53 µM) turned out to be 0.415; in the experiment with Vorinostat + Crizotinib (first compound 8 µM) it was 0.0921.
For NCI-H3122, the relative viability with Vorinostat + Palbociclib (first compound 0.253 µM) was determined as 0.19; with Vorinostat + Palbociclib (first compound 0.8 µM), 0.254; in the experiment with Vorinostat + Palbociclib (first compound 2.53 µM), 0.142; with Vorinostat + Palbociclib (first compound 8 µM), 0.0743; with Vorinostat + Bortezomib (first compound 0.253 µM), 1.07; in the experiment with Vorinostat + Bortezomib (first compound 0.8 µM), 0.995. Moreover, the relative viability stood at 1.03 with Vorinostat + Bortezomib (first compound 2.53 µM); 0.145 in the experiment with Vorinostat + Bortezomib (first compound 8 µM); 1.04 in the experiment with Vorinostat + Foretinib (first compound 0.253 µM); 1.05 with Vorinostat + Foretinib (first compound 0.8 µM); 0.242 with Vorinostat + Foretinib (first compound 2.53 µM); 0.0563 with Vorinostat + Foretinib (first compound 8 µM). Besides, the relative viability is 0.667 with Vorinostat + Pictilisib (first compound 0.253 µM); 0.758 with Vorinostat + Pictilisib (first compound 0.8 µM); 0.284 with Vorinostat + Pictilisib (first compound 2.53 µM); 0.177 with Vorinostat + Pictilisib (first compound 8 µM); 0.311 with Vorinostat + Crizotinib (first compound 0.253 µM); 0.317 with Vorinostat + Crizotinib (first compound 0.8 µM). Also, the relative viability was 0.227 with Vorinostat + Crizotinib (first compound 2.53 µM) and 0.198 in the experiment with Vorinostat + Crizotinib (first compound 8 µM).
